Measured values as given in ChEMBL document CHEMBL5579824, “Novel Hsp90-Targeting PROTACs: Enhanced synergy with cisplatin in combination therapy of cervical cancer” (Eur J Med Chem, 2024).
Activity calls are given as the source filed them. No cut-off for these calls is given here.

Columns and labels:
SiHa [1] = assay: Induction of cell cycle arrest in human SiHa cells assessed as accumulation of cells at G2/M pahse at 1 uM incubated after 48 hrs by PI staining based flow cytometry (reference value: 7.37 %); assay type: functional
SiHa [2] = assay: Synergistic antitumor activity against human SiHa cells xenografted in BALB/c nude mouse assessed as reduction in Ki67 protein expression at 2 mg/kg, ip co-treated with cisplatin separately for every two days by immunohistochemical analysis; assay type: functional, organism-based
SiHa [3] = assay: Induction of apoptosis in human SiHa cells assessed as viable cells at 2.5 uM incubated after 48 hrs by annexin V-FITC/PI staining based flow cytometry (reference value: 90.4 %); assay type: functional; conditions: read-out: Activity
SiHa [4] = assay: Synergistic antiproliferative activity against human SiHa cells assessed as combination index at 10 uM incubated for 72 hrs in presence of 0.03 uM cisplatin by CCK-8 assay; assay type: functional
[5] = target: T1, Protein cereblon/Heat shock protein HSP 90-alpha/Heat shock protein HSP 90-beta (Homo sapiens) (UniProt P07900+P08238+Q96SW2); assay: Protac activity at CRBN/Hsp90 in human SiHa cells assessed as induction of Hsp90 degradation at 0.05 uM incubated for 2 hrs in presence of bortezomib by Western blot analysis; assay type: cell-based
SiHa [6] = assay: Induction of apoptosis in human SiHa cells assessed as viable cells at 0.05 uM incubated after 48 hrs by annexin V-FITC/PI staining based flow cytometry (reference value: 90.4 %); assay type: functional; conditions: read-out: Activity
[7] = target: T1, Protein cereblon/Heat shock protein HSP 90-alpha/Heat shock protein HSP 90-beta (Homo sapiens); assay: Protac activity at CRBN/Hsp90 in human SiHa cells assessed as decrease in mTOR protein expression level at 0.01 to 1 uM incubated for 10 hrs by Western blot analysis; assay type: cell-based; conditions: dose 0.01-1 µM
SiHa [8] = assay: Inhibition of cell migration in human SiHa cells at 0.05 uM measured for 24 to 48 hrs by microscope based wound healing assay; assay type: functional; conditions: time 24-48 hrs
SiHa [9] = assay: Induction of apoptosis in human SiHa cells assessed as necrotic cells at 2.5 uM incubated after 48 hrs by annexin V-FITC/PI staining based flow cytometry (reference value: 0.08 %); assay type: functional
SiHa [10] = assay: Induction of cell cycle arrest in human SiHa cells assessed as accumulation of cells at G2/M pahse at 0.05 uM incubated after 48 hrs by PI staining based flow cytometry (reference value: 7.37 %); assay type: functional
SiHa [11] = assay: Induction of cell cycle arrest in human SiHa cells assessed as accumulation of cells at S pahse at 10 uM incubated after 48 hrs by PI staining based flow cytometry (reference value: 8.51 %); assay type: functional
SiHa [12] = assay: Synergistic antiproliferative activity against human SiHa cells assessed as combination index at 0.1 uM incubated for 72 hrs in presence of 1 uM cisplatin by CCK-8 assay; assay type: functional
SiHa [13] = assay: Synergistic antiproliferative activity against human SiHa cells assessed as combination index at 0.5 uM incubated for 72 hrs in presence of 0.03 uM cisplatin by CCK-8 assay; assay type: functional
SiHa [14] = assay: Synergistic antiproliferative activity against human SiHa cells assessed as combination index at 0.75 uM incubated for 72 hrs in presence of 31.62 uM cisplatin by CCK-8 assay; assay type: functional
SiHa [15] = assay: Synergistic antiproliferative activity against human SiHa cells assessed as combination index at 5 uM incubated for 72 hrs in presence of 0.01 uM cisplatin by CCK-8 assay; assay type: functional
SiHa [16] = assay: Synergistic antiproliferative activity against human SiHa cells assessed as combination index at 0.1 uM incubated for 72 hrs in presence of 0.01 uM cisplatin by CCK-8 assay; assay type: functional
SiHa [17] = assay: Synergistic antiproliferative activity against human SiHa cells assessed as combination index at 1 uM incubated for 72 hrs in presence of 3.16 uM cisplatin by CCK-8 assay; assay type: functional
SiHa [18] = assay: Synergistic antiproliferative activity against human SiHa cells assessed as combination index at 0.5 uM incubated for 72 hrs in presence of 31.62 uM cisplatin by CCK-8 assay; assay type: functional
[19] = Toxicity in BALB/c nude mouse xenografted with human SiHa cells assessed as body weight weight loss at 2 mg/kg, ip co-treated with cisplatin separately for every two days; assay type: organism-based; conditions: in vivo
SiHa [20] = assay: Antiproliferative activity against human SiHa cells assessed as inhibition of clone formation ability incubated for 14 days by crystal violet staining based microscopic analysis; assay type: functional, cell-based; conditions: dose 0.01-1 µM, time 14.0 day
SiHa [21] = assay: Synergistic antiproliferative activity against human SiHa cells assessed as combination index at 0.5 uM incubated for 72 hrs in presence of 10 uM cisplatin by CCK-8 assay; assay type: functional
SiHa [22] = assay: Induction of apoptosis in human SiHa cells assessed as late apoptotic cells at 0.05 uM incubated after 48 hrs by annexin V-FITC/PI staining based flow cytometry (reference value: 6.93 %); assay type: functional
SiHa [23] = assay: Synergistic antiproliferative activity against human SiHa cells assessed as combination index at 0.5 uM incubated for 72 hrs in presence of 1 uM cisplatin by CCK-8 assay; assay type: functional
HeLa = assay: Antiproliferative activity against human HeLa cells assessed as reduction in cell viability incubated for 72 hrs by CCK-8 assay; assay type: functional, cell-based
SiHa [24] = assay: Synergistic antiproliferative activity against human SiHa cells assessed as combination index at 5 uM incubated for 72 hrs in presence of 0.32 uM cisplatin by CCK-8 assay; assay type: functional
SiHa [25] = assay: Synergistic antiproliferative activity against human SiHa cells assessed as combination index at 1 uM incubated for 72 hrs in presence of 0.01 uM cisplatin by CCK-8 assay; assay type: functional
SiHa [26] = assay: Synergistic antiproliferative activity against human SiHa cells assessed as combination index at 5 uM incubated for 72 hrs in presence of 0.1 uM cisplatin by CCK-8 assay; assay type: functional
SiHa [27] = assay: Synergistic antiproliferative activity against human SiHa cells assessed as combination index at 0.75 uM incubated for 72 hrs in presence of 1 uM cisplatin by CCK-8 assay; assay type: functional
[28] = target: T1, Protein cereblon/Heat shock protein HSP 90-alpha/Heat shock protein HSP 90-beta (Homo sapiens); assay: Protac activity at CRBN/Hsp90 in human SiHa cells assessed as induction of Hsp90 degradation at 0.05 uM incubated for 2 hrs in presence of lenalidomide by Western blot analysis; assay type: cell-based
SiHa [29] = assay: Synergistic antiproliferative activity against human SiHa cells assessed as combination index at 0.05 uM incubated for 72 hrs in presence of 1 uM cisplatin by CCK-8 assay; assay type: functional
SiHa [30] = assay: Synergistic antiproliferative activity against human SiHa cells assessed as combination index at 5 uM incubated for 72 hrs in presence of 0.03 uM cisplatin by CCK-8 assay; assay type: functional
SiHa [31] = assay: Induction of apoptosis in human SiHa cells assessed as viable cells at 10 uM incubated after 48 hrs by annexin V-FITC/PI staining based flow cytometry (reference value: 90.4 %); assay type: functional; conditions: read-out: Activity
SiHa [32] = assay: Induction of apoptosis in human SiHa cells assessed as early apoptotic cells at 0.05 uM incubated after 48 hrs by annexin V-FITC/PI staining based flow cytometry (reference value: 2.05 %); assay type: functional
[33] = target: T1, Protein cereblon/Heat shock protein HSP 90-alpha/Heat shock protein HSP 90-beta (Homo sapiens); assay: Protac activity at CRBN/Hsp90 in human SiHa cells assessed as induction of Hsp90 degradation at 1 uM incubated for 8 to 10 hrs by Western blot analysis; assay type: cell-based; conditions: time 8-10 hrs

CC1(C)CC(=O)c2c(C(F)(F)F)nn(-c3ccc(C(N)=O)c(N[C@H]4CC[C@H](OC(=O)CNC(=O)CCCCCCCNc5cccc6c5CN(C5CCC(=O)NC5=O)C6=O)CC4)c3)c2C1 (some centres undefined)
Activity (SiHa [1]): 27.12%
Activity (SiHa [2]): Active
viability at 2.5 µM (SiHa [3]): 55.3%
CI (SiHa [4]): 2.11
Activity [5]: inactive
viability at 0.05 µM (SiHa [6]): 90.1%
Activity [7]: inactive
inhibition (SiHa [8]): Active
Activity (SiHa [9]): 0.68%
Activity (SiHa [10]): 9.88%
Activity (SiHa [11]): 13.6%
CI (SiHa [12]): 0.8
CI (SiHa [13]): 0.14
CI (SiHa [14]): 0.32
CI (SiHa [15]): 1.02
CI (SiHa [16]): 3.04
CI (SiHa [17]): 0.18
CI (SiHa [18]): 0.26
Activity [19]: Non-Toxic
inhibition (SiHa [20]): Dose-Dependent Effect
CI (SiHa [21]): 0.17
Activity (SiHa [22]): 7.4%
CI (SiHa [23]): 0.13
IC50 (HeLa): 80 nM
CI (SiHa [24]): 0.95
CI (SiHa [25]): 0.23
CI (SiHa [26]): 1.01
CI (SiHa [27]): 0.17
Activity [28]: inactive
CI (SiHa [29]): 0.74
CI (SiHa [30]): 1.02
viability at 10 µM (SiHa [31]): 51.9%
Activity (SiHa [32]): 2.44%
Activity [33]: Active
